Laboratory results reported in US6498154B1, “Cyclic regimens using quinazolinone and benzoxazine derivatives” (Wyeth, priority 1999, dated 2002).
Values joined by “and” are separate entries in the source; they are usually repeats but may differ in a detail not shown here. Equal entries are not always repeated.

tested on: rat uterine decidualization; assay: Rat decidualization assay; assay type: in vivo; settings: average of dose-response curves, rat decidualization, s.c.
Description: 1. Rat decidualization assay
b. Animals (RACUC protocol #5002)
The animals are treated once daily for seven days.
Uteri are removed and trimmed of fat.
Body weight: Mean total animal body weight (default-kg)
Decidual response: [(D-C)/C]×100%

Q: With C#C[C@]1(O)CC[C@H]2[C@@H]3CCC4=CC(=O)CC[C@@H]4[C@H]3C(=C)C[C@@]21CC [3-Ketodesogestrel, 3-ketodesogestrel] as the compound, how does the “Estimated average EC50” value read?
A: 0.10 mg/kg, s.c.

Q: Which “Estimated average EC50” value does the source give for C#C[C@]1(O)CC[C@H]2[C@@H]3CCC4=CC(=O)CC[C@@H]4[C@H]3CC[C@@]21CC [Levonorgestrel, levonorgestrel] here?
A: 0.10 mg/kg, s.c.

same assay, conditions: decrease in EC50 progesterone (5.6 mg/kg) induced decidual response, rat, s.c.

Q: For CC#C[C@]1(O)CC[C@H]2[C@@H]3CCC4=CC(=O)CCC4=C3[C@@H](c3ccc(N(C)C)cc3)C[C@@]21C [RU486], which “Estimated IC50” value is on record?
A: 0.21 mg/kg, s.c. and 0.14 mg/kg, s.c.

same assay, conditions: ovariectomized female Sprague-Dawley rats, once daily for seven days, s.c.; individual studies

Q: For C#C[C@]1(O)CC[C@H]2[C@@H]3CCC4=CC(=O)CC[C@@H]4[C@H]3C(=C)C[C@@]21CC [3-Ketodesogestrel, 3-ketodesogestrel], which “Estimated EC50 for uterine wet weight” value is on record?
A: 0.10 mg/kg, s.c. and 0.06 mg/kg, s.c. and 0.11 mg/kg, s.c.

Q: Which “Estimated EC50 for uterine wet weight” value does the source give for CC(=O)O[C@]1(C(C)=O)CC[C@H]2[C@@H]3C[C@H](C)C4=CC(=O)CC[C@]4(C)[C@H]3CC[C@@]21C [MPA, medroxyprogesterone acetate] here?
A: 0.42 mg/kg, s.c. and 0.39 mg/kg, s.c. (2×)

Q: Which “Estimated EC50 for uterine wet weight” value does the source give for C#C[C@]1(O)CC[C@H]2[C@@H]3CCC4=CC(=O)CC[C@@H]4[C@H]3CC[C@@]21CC [Levonorgestrel, levonorgestrel] here?
A: 0.08 mg/kg, s.c. and 0.12 mg/kg, s.c. and 0.09 mg/kg, s.c. (2×)

Q: With CC(=O)[C@H]1CC[C@H]2[C@@H]3CCC4=CC(=O)CC[C@]4(C)[C@H]3CC[C@]12C [Progesterone, progesterone] as the compound, how does the “Estimated EC50 for uterine wet weight” value read?
A: 5.50 mg/kg, s.c.

tested on: not given; assay: not given; settings: not given

Q: Which melting point does the source give for CC1Nc2ccc(-c3cc(F)cc(C#N)c3)cc2C(C)(C)O1 (stereo not shown) [Example 14, 3-Fluoro-5-(2,4,4-trimethyl-1,4-dihydro-2H-3,1-benzoxazin-6-yl)benzonitrile] here?
A: 163 to 164 °C

Q: For CN1C(=O)Nc2ccc(-c3cccc(Cl)c3)cc2C1(C)C1CC1 (stereo not shown) [drawing 34, R = Me, 6-(3-Chlorophenyl)-4-cyclopropyl-3,4-dimethyl3,4dihydro-1H-guinazolin-2-one], which melting point is on record?
A: 193 to 194 °C

Q: Which melting point does the source give for CC1OC(C)(C)Nc2ccc(-c3cccc([N+](=O)[O-])c3)cc21 (stereo not shown) [Compound 3, 6-(3-Nitro-phenyl)-2,2,4,-trimethyl-1,4dihydro-2H-benzo[d][1,3]oxazine] here?
A: 188 to 189 °C

Q: Which melting point does the source give for CC1Nc2ccc(-c3ccc(C#N)s3)cc2C(C)(C)O1 (stereo not shown) [Example 13, 5-(2,4,4-Trimethyl-1,4-dihydro-2H-3,1-benzoxazin-6-yl)thiophene-2-carbonitrile] here?
A: 172 to 173 °C

Q: For CC1Nc2ccc(-c3csc(C#N)c3)cc2C(C)(C)O1 (stereo not shown) [Example 15, 4-(2,4,4-Trimethyl-1,4-dihydro-2H-3,1-benzoxazin-6-yl)thiophene-2-carbonitrile], which melting point is on record?
A: 175 to 176 °C

Q: For CC1Nc2ccc(-c3ccc(C#N)[nH]3)cc2C(C)(C)O1 (stereo not shown) [Example 20, 5-(2,4,4-Trimethyl-1,4-dihydro-2H-3,1-benzoxazin-6-yl)1H-pyrrole-2-carbonitrile], which melting point is on record?
A: 201 to 202 °C

Q: For Cc1cc(C#N)sc1-c1ccc2c(c1)C(C)(C)OC(C(F)(F)F)N2 (stereo not shown) [Example 38, 5-[4,4-Dimethyl-2-(trifluoromethyl)-1,4-dihydro-2H-3,1-benzoxazin-6yl]-4-methylthiophene-2-carbonitrile], which melting point is on record?
A: 97 to 98 °C

Q: For CC1(C)CC(=O)Nc2ccc(-c3cccc(F)c3)cc21 [Example 40, 6(3-Fluorophenyl)-4,4-dimethyl-3,4-dihydroquinolin-2(1H)-one], which melting point is on record?
A: 190 to 192 °C

Q: For CC1(C)OC(C(F)(F)F)Nc2ccc(-c3cccc(Cl)c3)cc21 (stereo not shown) [Example 39, 6-(3-Chlorophenyl)-4,4-dimethyl-2-(trifluoromethyl)-1,4-dihydro-2H-3,1-benzoxazine], which melting point is on record?
A: 108 to 109 °C

Q: With CC1(C)OC(C(F)(F)F)Nc2ccc(-c3cc(F)cc(C#N)c3)cc21 (stereo not shown) [Example 32, 3-[4,4-Dimethyl-2-(trifluoromethyl)-1,4-dihydro-2H-3,1-benzoxazin-6-yl]-5-fluorobenzonitrile] as the compound, how does the melting point read?
A: 102 to 103 °C

Q: Which melting point does the source give for CC1(C)CC(=O)Nc2ccc(-c3cccc(Cl)c3)cc21 [6-(3-Chlorophenyl)-4,4-dimethyl-3,4-dihydro-1H-quinolin-2-one] here?
A: 211 to 215 °C

Q: With CC1(C)CC(=S)Nc2ccc(-c3cccc(F)c3)cc21 [Example 44, 6-(3-Fluorophenyl)-4,4-dimethyl-3,4-dihydroquinoline-2(1H)-thione] as the compound, how does the melting point read?
A: 209 to 211 °C

Q: Which melting point does the source give for CC1Nc2ccc(-c3ccc(F)c(C#N)c3)cc2C(C)(C)O1 (stereo not shown) [Example 30, 2-Fluoro-5-(2,4,4-trimethyl-1,4-dihydro-2H-3,1-benzoxazin-6-yl)benzonitrile] here?
A: 184 to 186 °C

Q: With CC1Nc2ccc(-c3cccc(Cl)c3)cc2C(C)(C)O1 (stereo not shown) [Example 28, 6-(3-Chlorophenyl)-2,4,4-trimethyl-1,4-dihydro-2H-3,1-benzoxazine] as the compound, how does the melting point read?
A: 144 to 146 °C

Q: For CC1OC(C)(C)c2cc(-c3ccc(C#N)n3C(=O)OC(C)(C)C)ccc2N1C(=O)OCC1c2ccccc2-c2ccccc21 (stereo not shown) [Example 19, 9H-Fluoren-9-ylmethyl-6-[1-(tert-butoxycarbonyl)-5-cyano-1H-pyrrol-2-yl]-2,4,4-trimethyl-2H-3,1-benzoxazine-1(4H)-carboxylate], which melting point is on record?
A: 135 to 136 °C

Q: Which melting point does the source give for CC1Nc2ccc(-c3ccc(F)c(Cl)c3)cc2C(C)(C)O1 (stereo not shown) [Example 29, 6(3-Chloro-4-fluorophenyl)-2,4,4-trimethyl-1,4dihydro-2H-3,1-benzoxazine] here?
A: 173 to 175 °C

Q: With CC1Nc2ccc(-c3cccc(F)c3)cc2C(C)(C)O1 (stereo not shown) [Example 27, 6-(3-Fluorophenyl)-2,4,4-trimethyl-1,4-dihydro-2H-3,1-benzoxazine] as the compound, how does the melting point read?
A: 139 to 140 °C

Q: Which melting point does the source give for CC1Nc2ccc(-c3coc(C#N)c3)cc2C(C)(C)O1 (stereo not shown) [Example 31, 4-(2,4,4-Trimethyl-1,4-dihydro-2H-3,1-benzoxazin-6-yl)-2-furonitrile] here?
A: 116 to 118 °C

Q: Which melting point does the source give for CC1Nc2ccc(-c3csc(C#N)c3)cc2C2(CCCCC2)O1 (stereo not shown) [Example 26, 4-(2-Methylspiro[2H-3,1-benzoxazine-4,1′-cyclohexane]-6-yl)2-thiophenecarbonitrile] here?
A: 111 to 112 °C

Q: With Cc1cc(C#N)sc1-c1ccc2c(c1)C(C)(C)OC(C)N2 (stereo not shown) [Example 16, 4-Methyl-5(2,4,4-trimethyl-1,4-dihydro-2H-3,1-benzoxazin-6-yl)thiophene-2-carbonitrile] as the compound, how does the melting point read?
A: 145 to 146 °C

Q: For CC1(C)CC(=O)Nc2ccc(-c3cc(F)cc(C#N)c3)cc21 [Example 41, 3-(4,4-Dimethyl-2-oxo-1,2,3,4-tetrahydroquinolin-6-yl)-5-fluorobenzonitrile], which melting point is on record?
A: 249 to 250 °C

Q: For CC1(C2CC2)NC(=O)Nc2ccc(-c3cccc(Cl)c3)cc21 (stereo not shown) [drawing 34, R = H, 6-(3-Chlorophenyl)-4-cyclopropyl-4-methyl-3,4-dihydro-1H-quinazolin-2-one], which melting point is on record?
A: 125 to 127 °C

Q: With CC1(C)CC(=S)Nc2ccc(-c3cc(F)cc(C#N)c3)cc21 [Example 46, 3-(4,4-Dimethyl-2-thioxo-1,2,3,4-tetrahydroquinolin-6-yl)5-fluorobenzonitrile] as the compound, how does the melting point read?
A: 240 to 242 °C (dec.)

Q: With CC1(C)CC(=O)Nc2ccc(-c3cccc(C#N)c3)cc21 [Example 42, 3-(4,4-Dimethyl-2-oxo-1,2,3,4-tetrahydroquinolin-6-yl)benzonitrile] as the compound, how does the melting point read?
A: 190 to 192 °C

Q: With C[C@@H]1Nc2ccc(-c3cc(F)cc(C#N)c3)cc2[C@](C)(c2ccccc2)O1 [Example 17, 3-[(2R,4S)-2,4-Dimethyl-4-phenyl-1,4-dihydro-2H-3,1-benzoxazin-6-yl]-5-fluorobenzonitrile] as the compound, how does the melting point read?
A: 128 to 129 °C

tested on: T47D cells; assay: T47D cell proliferation assay (BrdU incorporation); assay type: cell-based; settings: half-maximal decrease in trimegestone induced BrdU incorporation, read-out: Estimated IC50
Description: 3. T47D Cell Proliferation Assay
The objective of this assay is the determination of progestational and antiprogestational potency by using a cell proliferation assay in T47D cells. A compound's effect on DNA synthesis in T47D cells is measured.
DMEM:F12 (1:1) (GIBCO, BRL) supplemented with 10% (v/v) fetal bovine serum (not heat-inactivated), 10 U/ml penicillin, […] streptornycin, and 2 mM GlutaMax (GIBCO, BRL).
Minimum Essential Medium (MEM) (#51200-038GIBCO, BRL) phenol red-free supplemented with 0.5% charcoal stripped fetal bovine serum, 100 U/ml penicillin, […] streptornycin, and 2 mM GlutaMax (GIBCO, BRL).
Stock T47 D cells are maintained in growth medium. For BrdU incorporation assay, cells are plated in 96-well plates (Falcon, Becton Dickinson Labware) at 10,000 cells/well in growth medium. […]
At the end of BrdU labeling, the medium is removed and BrdU incorporation is measured using a cell proliferation ELISA kit (#RPN 250, Amersham Life Science) according to manufacturer's instructions. […] Then 25 μl of 1 M sulfuric acid is added to each well to stop color reaction and optical density is read in a plate reader at 450 nm within 5 min.
Square root-transformed data are used for analysis of variance and nonlinear dose response curve fitting for both agonist and antagonist modes. […] EC50 or IC50 values are calculated from the retransformed values. […]

Q: Which IC50 does the source give for CC#C[C@]1(O)CC[C@H]2[C@@H]3CCC4=CC(=O)CCC4=C3[C@@H](c3ccc(N(C)C)cc3)C[C@@]21C [RU486] here?
A: 0.016 nM and 0.018 nM

same assay, conditions: half-maximal increase in BrdU incorporation, individual studies, read-out: Estimated EC50

Q: With C[C@H](O)C(=O)[C@@]1(C)CC[C@H]2[C@@H]3CCC4=CC(=O)CCC4=C3CC[C@@]21C [Trimegestone, trimegestone] as the compound, how does the EC50 read?
A: 0.017 nM and 0.014 nM and 0.019 nM
